From paper PMC11744575 (Advanced Science, 2024)
Blank lines part the entries; values can stand above or below the molecule they belong to.

Tests used:
primary hepatocytes = assay: Intracellular triglyceride content and BODIPY staining in primary hepatocytes; format: cell-based, mouse; details: for effect of co-incubation on triglyceride levels within BBR-treated hepatocytes: co-incubation with BBR in the presence of OA
Procedure: To establish an in vitro model of hepatic steatosis, hepatocytes were treated with 0.2 mM oleic acid (OA, O7501, Sigma‐Aldrich) for 16 h. OA was pre‐incubated with 10% bovine serum albumin (BSA, Sigma‐Aldrich) (1:4) for 1 h and then added to the cell culture medium along with different compounds.
Primary hepatocytes were washed three times with phosphate‐buffered saline (PBS) and then subjected to three repeated freeze‐thaw cycles. The released intracellular triglyceride content was then measured using a commercial assay kit (Jiancheng). Protein content was used for normalization.
The lipid droplets in the hepatocytes in 6‐well plates were visualized by first washing the cells and then immersing them in a serum‐free medium. Subsequently, […] BODIPY 493/503 (Sigma‐Aldrich) was added to the medium, and the cells were incubated for 20 min for staining, followed by imaging with confocal microscopy (Olympus, Tokyo, Japan).

db/db mice = assay: 4-week administration in db/db mice (liver injury, steatosis, glucose profiles); format: in vivo, mouse
PPARγ target genes = assay: qPCR of PPARγ target genes in primary hepatocytes; format: cell-based, mouse; details: co-incubation with BBR
Procedure: Tissues or cells were lysed using TRIzol (#1 218 355, Invitrogen, Thermo Fisher Scientific, MA, USA) for subsequent RNA extraction through a series of steps involving chloroform extraction and isopropanol and ethanol precipitation. Reverse transcription and cDNA synthesis were performed using a reverse transcription and cDNA synthesis kit (#639 506, Takara Bio Inc., Kusatsu, Shiga, Japan) to synthesize complementary DNA (cDNA) from […] of RNA. Quantitative real‐time PCR analysis was conducted utilizing SYBR Green pre‐mix (Q111‐02, Vazyme Biotech Co., Ltd, Nanjing, China) and subsequently analyzed employing the Roche real‐time PCR system. The mRNA expression levels were calculated and quantified utilizing the relative standard curve method and subsequently normalized to the expression of the housekeeping gene Gapdh. The primer sequences utilized for qPCR analysis are listed in Table S2 (Supporting Information).

[1] = Pharmacokinetic profile of BBR and 6-OH-BBR in db/db and lean mice (plasma, liver); format: in vivo, mouse
Procedure: Briefly, blood samples (50 µL) were collected at different time points post‐drug administration (no more than three collections per mouse), centrifuged at 4 °C and 8000 g for 5 min, and the upper plasma layer was collected. At 2 and 24 h post‐dosing, the mice were sacrificed, and liver tissues were collected for cryopreservation and prepared as homogenates (W/V: 0.1 g·mL^−1) for drug concentration determinations.
(§1) Briefly, proteins in the samples were precipitated with three volumes of methanol containing an internal standard (chlorophenylalanine). After centrifugation at 30 000 g for 10 min at 4 °C, the supernatant was injected into the LC‐MS/MS system for analysis. Chromatographic separation was conducted using a ZORBAX 300SB C18 column (100 × 2.1 mm, 3.5 µm, Agilent, CA, USA) at 40 °C on a Shimadzu HPLC system.

[2] = test system: Primary cultured mouse hepatocytes; assay: Cell viability (CCK8) cytotoxicity assay; format: cell-based
Excerpt: C) BODIPY staining in different groups; images are shown under 600× or 1800× magnification, scale bar = 100 µm. D) Flow scheme of RNA sequencing.
Primary hepatocytes were isolated from the livers of 6‐week‐old male C57BL/6J mice as previously described.^[ [25] ^] Briefly, the liver was thoroughly digested by injection of type IV collagenase (C4‐BIOC, Sigma‐Aldrich, Louis, MO, USA) via the portal vein. The perfused liver was excised, dispersed, and filtered through a 70 µm filter, and the digestion was terminated by adding cold Dulbecco's modified Eagle's medium (DMEM, #11 960 044, Gibco, Grand Island, NY, USA). The cell suspension was centrifuged at 4 °C at 50 g for 5 min to remove the supernatant and debris. An equal volume of DMEM and Percoll (CAS 65455‐52‐9, Sigma‐Aldrich) was then mixed thoroughly and centrifuged at 50 g for 15 min at 4 °C. The viable cell layer at the bottom was collected and further centrifuged in DMEM to prepare the cell seeding plate. Cells were seeded in a 6‐well plate at a density of 1 × 10^6 cells per well and cultured in DMEM medium supplemented with 10% fetal bovine serum (FBS, Gibco) at 37 °C in a 5% CO2 incubator.

[3] = BBR metabolism kinetics with liver S9 fractions; format: in vitro ADME, mouse; details: for Km at 2 h: mouse, liver S9 fraction
Procedure: The incubations were carried out for 2 h at 37 °C in a 100 µL reaction volume containing the pooled liver S9 fraction (7.5 mg·mL^−1) and an NADPH‐regenerating system consisting of MgCl2 (40 mM), glucose‐6‐phosphate (40 µM), NADP^+ (8 µM), and glucose 6‐phosphate dehydrogenase (4 U·mL^−1). The reactions were terminated by the addition of 300 µL of ice‐cold acetonitrile containing the internal standard (chlorophenylalanine), followed by rigorous mixing and centrifugation. The supernatants were subsequently analyzed by LC‐MS/MS, employing methodologies detailed in previous publications.^[ [27] ^]
as §1

[4] = molecular target: T1, recombinant human PPARγ protein (Homo sapiens, UniProt P37231); assay: MicroScale Thermophoresis (MST) of rosiglitazone binding with/without BBR; details: rosiglitazone affinity in presence/absence of BBR
T1 construct: purchased Sino Biotechnology, Beijing, China
T1 sequence (P37231 1-505): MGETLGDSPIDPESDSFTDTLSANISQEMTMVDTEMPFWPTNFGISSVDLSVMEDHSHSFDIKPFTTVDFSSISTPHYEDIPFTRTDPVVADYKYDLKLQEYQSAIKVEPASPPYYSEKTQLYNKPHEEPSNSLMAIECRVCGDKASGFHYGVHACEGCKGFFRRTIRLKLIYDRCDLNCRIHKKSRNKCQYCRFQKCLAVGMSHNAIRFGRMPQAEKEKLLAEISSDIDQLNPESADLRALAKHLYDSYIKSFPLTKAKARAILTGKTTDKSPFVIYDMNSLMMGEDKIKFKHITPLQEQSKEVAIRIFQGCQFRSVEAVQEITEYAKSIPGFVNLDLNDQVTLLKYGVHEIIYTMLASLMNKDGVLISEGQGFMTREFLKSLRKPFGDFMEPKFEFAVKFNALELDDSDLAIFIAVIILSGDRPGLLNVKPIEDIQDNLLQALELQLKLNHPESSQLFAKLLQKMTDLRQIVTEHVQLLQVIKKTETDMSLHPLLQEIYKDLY

obese mice models = test system: obese mice models; set-up: method as in PMID 29526820; details: no comparable liver damage in healthy lean mice; cited from earlier work
livers of healthy rats = test system: livers of healthy rats; set-up: method as in PMID 1701930; details: up to 102 weeks of treatment; cited from earlier work
[5] = test system: peroxisome proliferator‐activated receptor alpha (PPARα); set-up: method as in PMID 18274627; details: cited from earlier work
[6] = test system: peroxisome proliferator‐activated receptor gamma (PPARγ); set-up: method as in PMID 18274627; details: cited from earlier work
[7] = substrate: CC(=O)Nc1ccc(O)cc1; assay: Enzyme kinetic study in liver S9, Cyp1a2; format: in vitro ADME, mouse; details: 37.0 °C
[8] = db/db mice compared to lean littermates after BBR 20 mg·kg^−1 i.g.
[9] = db/db vs lean mice, single 20 mg·kg^−1 i.g.
[10] = 25 mg·kg^−1 gavage once daily, 4 weeks

Molecule: CCC(=O)NC[C@H](Cc1ccc(OCCc2nc(-c3ccccc3)oc2C)cc1)N/C(C)=C\C(=O)c1ccc(C(F)(F)F)cc1 [GW6471]
effect of co-incubation on triglyceride levels within BBR-treated hepatocytes (primary hepatocytes): failed to mitigate

Molecule: O=C(Nc1ccncc1)c1cc([N+](=O)[O-])ccc1Cl [T0070907]
effect of co-incubation on triglyceride levels within BBR-treated hepatocytes (primary hepatocytes): notable reduction

Molecule: Cc1ccc(Cn2nc(CCCc3ccc(OC(C)(C)C(=O)O)cc3)[nH]c2=O)cc1 [LY518674]
effect of co-incubation on triglyceride levels within BBR-treated hepatocytes (primary hepatocytes): notable reduction

Molecule: CCc1oc2ccccc2c1C(=O)c1cc(Br)c(O)c(Br)c1 [BBR, Benzbromarone]
liver concentration at 2 h post-administration ([1]; db/db mouse livers vs lean littermates, 20 mg·kg^−1 i.g.): notably higher
decrease in clearance rate (CL) [1, 9]: 42.5%
increase in area under the curve (AUC), plasma [1, 9]: 1.75 fold
increase in mean residence time (MRT) [1, 9]: 1.54 fold
increase in plasma half-life (T1/2) [1, 9]: 2.03 fold
liver concentration at 24 h ([1]; liver tissues of both groups (db/db and lean), 20 mg·kg^−1 i.g.): undetectable
cytotoxicity at dosages chosen for further experiments ([2]; 15 and 30 µM): non‐toxic
IC50 ([2]; Mus musculus, Hepatocyte, read-out: 50% inhibitory concentration (IC50), cell viability, 24 h incubation, CCK8): 80.3 µM
lipid accumulation (intracellular triglyceride, BODIPY lipid droplets) (primary hepatocytes; oleic acid (OA)-treated hepatocytes, 16 h): obviously enhanced
metabolism catalyzed by liver S9 fractions ([3]; S9 from db/db mice compared to lean mice): marked reduction
Km at 2 h ([3]; lean littermates of db/db mice, liver S9 from Lean mice): 8.14 µg/mL
Km at 2 h ([3]; liver S9 from db/db mice): 9.24 µg/mL
nature of BBR binding against the PPARγ agonist rosiglitazone (MST) [4]: competitive
hepatic steatosis and liver injury (obese mice models): specifically exacerbates
hepatotoxicity in the livers of healthy rats (livers of healthy rats): negligible hepatotoxicity
liver weight, serum transaminases, and creatinine levels (db/db mice; [10]): increases
serum triglyceride and non-esterified fatty acid (NEFA) levels (db/db mice; [10]): reductions
fasting plasma glucose levels (db/db mice; 4-week treatment): significantly decreased
glucose tolerance (db/db mice; 4-week treatment): improved
liver triglyceride levels (db/db mice; 4-week treatment): elevation
pyruvate tolerance and insulin sensitivity (db/db mice; 4-week treatment): diminished
binding affinity for PPARα [5]: weak binding affinity
binding affinity for PPARγ [6]: weak binding affinity

B1: Cyp1a2 (Mus musculus) (protein)
chain: MAFSQYISLAPELLLATAIFCLVFWMVRASRTQVPKGLKNPPGPWGLPFIGHMLTVGKNPHLSLTRLSQQYGDVLQIRIGSTPVVVLSGLNTIKQALVRQGDDFKGRPDLYSFTLITNGKSMTFNPDSGPVWAARRRLAQDALKSFSIASDPTSASSCYLEEHVSKEANHLVSKLQKAMAEVGHFEPVSQVVESVANVIGAMCFGKNFPRKSEEMLNIVNNSKDFVENVTSGNAVDFFPVLRYLPNPALKRFKTFNDNFVLFLQKTVQEHYQDFNKNSIQDITSALFKHSENYKDNGGLIPEEKIVNIVNDIFGAGFDTVTTAITWSILLLVTWPNVQRKIHEELDTVVGRDRQPRLSDRPQLPYLEAFILEIYRYTSFVPFTIPHSTTRDTSLNGFHIPKERCIYINQWQVNHDEKQWKDPFVFRPERFLTNNNSAIDKTQSEKVMLFGLGKRRCIGEIPAKWEVFLFLAILLQHLEFSVPPGVKVDLTPNYGLTMKPGTCEHVQAWPRFSK
notes: liver S9 fractions from db/db mice or their lean littermates; from tissue; host or cells: pooled liver S9 fraction of db/db mice or lean littermates
Km ([7]; other: Cyp1a2, pooled liver S9, Lean): 45.8 µM
Km ([7]; other: Cyp1a2, pooled liver S9, db/db): 32.5 µM

Now from value to molecule, other results behind:

effect of co-incubation on triglyceride levels within BBR-treated hepatocytes (primary hepatocytes): notable reduction
Molecule: O=C(Nc1ccccc1)c1cc([N+](=O)[O-])ccc1Cl [GW9662]
effect on BBR-mediated exacerbation of hepatic steatosis and liver injury (db/db mice; 1 mg·kg^−1 i.p. with BBR, 4 weeks): markedly mitigated
effect on BBR-induced upregulation of typical PPARγ target genes (mRNA) (PPARγ target genes): significantly diminished

liver concentration at 24 h, db/db vs lean [1, 8]: significantly higher
plasma concentration-time profile (metabolite production) [1, 8]: delayed production
Molecule: CCc1oc2cc(O)ccc2c1C(=O)c1cc(Br)c(O)c(Br)c1 [6‐OH‐BBR, 6‐hydroxy‐benzbromarone]
